Measured values taken from US8822468B2 (Novartis AG, priority 2008, dated 2014).

molecular target: T1, cMET receptor tyrosine kinase (GST-cMET (969-1390)) (Homo sapiens, UniProt P08581); assay: EPK cMET profiling assay (LanthaScreen TR-FRET antibody based kinase phosphorylation assay); format: biochemical; details: purified recombinant GST-cMET (969-1390), 2 μM ATP, 50 nM Fluorescein-PolyEAY, 60 minutes at room temperature; read-out: c-Met IC50
T1 construct: made in house
Summary of the method: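 Compounds tested at eight final concentrations from 10 down to 0.003 µM against affinity-purified GST-cMET (969-1390, 0.3 nM) with 2 µM ATP and 50 nM fluorescein-PolyEAY in Tris buffer with MgCl2 and MnCl2, 1 h at room temperature. After EDTA stop, phosphoproduct detected by LanthaScreen TR-FRET with Tb-PY20 antibody, end-point measurement.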

T1 sequence (P08581 969-1390): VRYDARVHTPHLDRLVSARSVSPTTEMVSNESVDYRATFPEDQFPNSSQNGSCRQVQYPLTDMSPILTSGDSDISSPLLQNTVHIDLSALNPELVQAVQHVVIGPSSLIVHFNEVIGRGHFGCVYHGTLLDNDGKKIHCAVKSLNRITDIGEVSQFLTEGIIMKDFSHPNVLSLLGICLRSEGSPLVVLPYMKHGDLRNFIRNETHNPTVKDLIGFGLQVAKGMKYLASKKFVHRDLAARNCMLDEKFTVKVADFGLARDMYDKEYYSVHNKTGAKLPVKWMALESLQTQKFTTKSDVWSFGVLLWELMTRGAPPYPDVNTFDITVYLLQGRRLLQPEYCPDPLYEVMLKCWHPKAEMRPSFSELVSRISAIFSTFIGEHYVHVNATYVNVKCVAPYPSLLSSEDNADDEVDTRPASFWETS

First: CCN1CCC(n2cc(-c3ccc4ncc(Cc5cc6cccnc6cc5F)n4n3)cn2)CC1 [Example 148, 6-{6-[1-(1-Ethyl-piperidin-4-yl)-1H-pyrazol-4-yl]-imidazo[1,2-b]pyridazin-3-ylmethyl}-7-fluoro-quinoline]
Second: Cn1ncc2cc(Cc3cnc4ccc(-c5cnn(CCO)c5)nn34)c(F)cc21 [Example 281, 2-{4-[3-(6-Fluoro-1-methyl-1H-indazol-5-ylmethyl)-imidazo[1,2-b]pyridazin-6-yl]-pyrazol-1-yl}-ethanol]
The IC50 of the first is 4.8-fold lower: 16 nM for the first, 77 nM for the second.

Compared with C=C(c1ccc2ncccc2c1)c1cnc2ccc(-c3cnn(C)c3)nn12 [Example 155, 6-{1-[6-(1-Methyl-1H-pyrazol-4-yl)-imidazo[1,2-b]pyridazin-3-yl]-vinyl}-quinoline], c1cnc2ccc(Cc3cnc4ccc(-c5cn[nH]c5)nn34)cc2c1 [Example 212, 6-[6-(1H-Pyrazol-4-yl)-imidazo[1,2-b]pyridazin-3-ylmethyl]-quinoline] is 16-fold lower in IC50: 860 nM for the first, 54 nM for the second.

O=C1CCN(c2ccc3ncc(Cc4ccc5ncccc5c4)n3n2)CCN1 [Example 109, 1-(3-Quinolin-6-ylmethyl-imidazo[1,2-b]pyridazin-6-yl)-[1,4]diazepan-5-one] and N#Cc1ccc2ncc(Cc3ccc4ncccc4c3)n2n1 [Example 208, 3-Quinolin-6-ylmethyl-imidazo[1,2-b]pyridazine-6-carbonitrile] are within 1.5-fold of each other in IC50: 62 nM for the first, 52 nM for the second.

Compared with COc1ccc(C(O)c2cnc3ccc(-c4cnn(C)c4)nn23)cc1 (racemic) [Example 3, (rac)-(4-Methoxy-phenyl)-[6-(1-methyl-1H-pyrazol-4-yl)-imidazo[1,2-b]pyridazin-3-yl]-methanol], C[C@@H](c1ccc2c(cnn2C)c1)c1cnc2ccc(-c3cnn(C)c3)nn12 [Example 196, 3-[(S)-1-(1-Methyl-1H-indazol-5-yl)-ethyl]-6-(1-methyl-1H-pyrazol-4-yl)-imidazo[1,2-b]pyridazine] is 110-fold lower in IC50: 3950 nM for the first, 36 nM for the second.

c1cnc2ccc(Cc3cnc4ccc(Nc5ccncn5)nn34)cc2c1 [Example 131, Pyrimidin-4-yl-(3-quinolin-6-ylmethyl-imidazo[1,2-b]pyridazin-6-yl)-amine] and c1cnc2ccc(Cc3cnc4ccc(-c5ccsc5)nn34)cc2c1 [Example 65, 6-(6-Thiophen-3-yl-imidazo[1,2-b]pyridazin-3-ylmethyl)-quinoline] are within 1.5-fold of each other in IC50: 180 nM for the first, 160 nM for the second.

Going from CC(=O)c1cnc2ccc(Cc3cnc4ccc(-c5cnn(C)c5)nn34)cn12 [Example 301, 1-{6-[6-(1-Methyl-1H-pyrazol-4-yl)-imidazo[1,2-b]pyridazin-3-ylmethyl]-imidazo[1,2-a]pyridin-3-yl}-ethanone] to Cn1cc(-c2ccc3ncc(Cc4ccc5nccn5c4)n3n2)cn1 [Example 10, 3-Imidazo[1,2-a]pyridin-6-ylmethyl-6-(1-methyl-1H-pyrazol-4-yl)-imidazo[1,2-b]pyridazine], the IC50 falls from 71 nM to 21.5 nM (3.3-fold).

Going from c1cnc2ccc(Cc3cnc4ccc(-c5cc6ccccc6o5)nn34)cc2c1 [Example 31, 6-(6-Benzofuran-2-yl-imidazo[1,2-b]pyridazin-3-ylmethyl)-quinoline] to COc1ccc(-c2ccc3ncc(Cc4ccc5ncccc5c4)n3n2)cn1 [Example 62, 6-[6-(6-Methoxy-pyridin-3-yl)-imidazo[1,2-b]pyridazin-3-ylmethyl]-quinoline], the IC50 falls from 230 nM to 39 nM (5.9-fold).

Cn1cc(-c2ccc3ncc(Cc4ccc5ncc(-c6cccc(C#N)c6)n5c4)n3n2)cn1 [Example 305, 3-{6-[6-(1-Methyl-1H-pyrazol-4-yl)-imidazo[1,2-b]pyridazin-3-ylmethyl]-imidazo[1,2-a]pyridin-3-yl}-benzonitrile] and C[C@H](c1c(F)cc2ncccc2c1F)c1cnc2ccc(-c3cnn(CCO)c3)nn12 [Example 183, 2-(4-{3-[(R)-1-(5,7-Difluoro-quinolin-6-yl)-ethyl]-imidazo[1,2-b]pyridazin-6-yl}-pyrazol-1-yl)ethanol] are within 1.5-fold of each other in IC50: 260 nM for the first, 200 nM for the second.
